In patent EP3046573B1, “AMYLIN ANALOGUES” (Zealand Pharma A/S, priority 2013, dated 2015):
Where two headings read alike, the source gives them in different places. Numbered stars: 1 amine (or outer) side, 2 acyl side, 3 side chain; on linkers, the order of the positions; unused ones are H or OH. Bridge positions count the residues as written; N and C are the ends. Square brackets hold non-standard residues; d marks the D form. Peptide text beside a SMILES is read from it. * marks the point of attachment. C20 diacid = O=C(O)CCCCCCCCCCCCCCCCCCC(=O)*; γGlu = O=C(O)[C@H](CCC(=O)[*:2])N[*:1]; NMeI = CC[C@H](C)[C@H](NC)C(=O)O; Sar = CNCC(=O)O

How the values were obtained:
[1] = molecular target: T1, human amylin receptor 3 (hAMYR3) consisting of hCTR2 co-expressed with human Receptor Activity Modifying Protein 3 (hRAMP3) (Homo sapiens, UniProt O60896+P30988); assay: hAMYR3 assay: induction of cAMP (AlphaScreen cAMP Assay kit) in COS7 cells expressing hAMYR3; type: cell-based
T1 construct: expressed in transfected cells
T1 sequence (P30988 25-474): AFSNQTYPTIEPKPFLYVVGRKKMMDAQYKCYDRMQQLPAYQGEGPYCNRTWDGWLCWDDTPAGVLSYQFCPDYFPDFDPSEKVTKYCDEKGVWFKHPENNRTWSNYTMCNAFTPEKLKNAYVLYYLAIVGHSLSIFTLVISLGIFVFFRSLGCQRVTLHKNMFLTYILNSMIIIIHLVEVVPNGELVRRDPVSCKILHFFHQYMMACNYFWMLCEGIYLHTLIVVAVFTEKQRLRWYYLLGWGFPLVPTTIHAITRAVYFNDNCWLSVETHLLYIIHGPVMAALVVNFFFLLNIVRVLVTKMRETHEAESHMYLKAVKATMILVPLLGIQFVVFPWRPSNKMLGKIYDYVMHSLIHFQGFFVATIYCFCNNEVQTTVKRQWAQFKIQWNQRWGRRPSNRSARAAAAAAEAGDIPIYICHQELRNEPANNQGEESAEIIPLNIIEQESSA
T1 sequence (O60896 24-148 partner): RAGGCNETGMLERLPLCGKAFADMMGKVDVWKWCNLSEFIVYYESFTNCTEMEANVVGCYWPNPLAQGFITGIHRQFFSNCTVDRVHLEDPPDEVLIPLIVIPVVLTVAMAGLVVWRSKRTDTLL
Method in brief: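 cAMP accumulation read by AlphaScreen in lysates of RAMP-naive COS7 cells stably transfected with hCTR2 plus hRAMP3. Cells exposed to peptide dilutions for 15 min, 37° C, with 100 µM IBMX; 4PL fitting gave EC50 and efficacy relative to pramlintide.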

[2] = Solubility assessment (turbidity absorbance at 325 nm); type: physicochemical; conditions: stock 2 mg/ml diluted 1:1, ambient temperature (typically 25°C), n=1; for Solubility, Acetate buffer pH 4: 100 mM acetate buffer pH 4.0; for Solubility, Acetate buffer pH 5: 100 mM acetate buffer pH 5.0; for Solubility, Histidine buffer pH 6: 100 mM histidine buffer pH 6.0; for Solubility, Histidine buffer pH 7: 100 mM histidine buffer pH 7.0; for Solubility, Phosphate buffer pH 6: 100 mM phosphate buffer pH 6.0; for Solubility, Phosphate buffer pH 7: 100 mM phosphate buffer pH 7.0; for Solubility, Phosphate buffer pH 7.5: 100 mM phosphate buffer pH7.5
Method in brief: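 Read-out: turbidity as absorbance at 325 nm (280 nm also read), single samples, ambient temperature of typically 25°C. Samples were a 1:1 mix of 2 mg/ml stock (water, pH 2.5) with 100 mM acetate, histidine or phosphate buffers spanning pH 4.0–7.5. Cut-off: A325 ≤ 0.02 indicates ≥ 1 mg/ml.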

EC50 ([1]; cAMP induction in COS7 cells expressing hAMYR3, average of a minimum of 3 determinations, read-out: hAMY R3 EC50)	Compound	Solubility, Acetate buffer pH 4 [2]	Solubility, Acetate buffer pH 5 [2]	Solubility, Histidine buffer pH 6 [2]	Solubility, Histidine buffer pH 7 [2]	Solubility, Phosphate buffer pH 6 [2]	Solubility, Phosphate buffer pH 7 [2]	Solubility, Phosphate buffer pH 7.5 [2]	EC50 [1]
0.17 nM	CC[C@H](C)[C@@H](C(=O)N[C@@H](CC(C)C)C(=O)N1CCC[C@H]1C(=O)N1CCC[C@H]1C(=O)N[C@H](C(=O)N[C@@H](CC(N)=O)C(=O)N[C@H](C(=O)NCC(=O)N[C@@H](CO)C(=O)N[C@@H](CC(N)=O)C(=O)N[C@H](C(=O)N1CCC[C@H]1C(N)=O)[C@@H](C)O)C(C)C)[C@@H](C)O)N(C)C(=O)CN(C)C(=O)[C@H](Cc1ccccc1)NC(=O)[C@H](CC(N)=O)NC(=O)[C@H](CC(N)=O)NC(=O)[C@H](CO)NC(=O)[C@H](CO)NC(=O)[C@H](Cc1c[nH]cn1)NC(=O)[C@H](Cc1c[nH]cn1)NC(=O)[C@H](CC(C)C)NC(=O)[C@H](Cc1ccccc1)NC(=O)[C@H](CCC(=O)O)NC(=O)[C@H](C)NC(=O)[C@H](CC(C)C)NC(=O)[C@H](CCCNC(=N)N)NC(=O)[C@H](CCC(N)=O)NC(=O)[C@@H](NC(=O)[C@H](C)NC(=O)[C@@H]1CSSC[C@H](NC(=O)[C@H](CCCNC(=N)N)NC(=O)CC[C@H](NC(=O)CCCCCCCCCCCCCCCCCCC(=O)O)C(=O)O)C(=O)N[C@@H](CC(N)=O)C(=O)N[C@@H]([C@@H](C)O)C(=O)N[C@@H](C)C(=O)N[C@@H]([C@@H](C)O)C(=O)N1)[C@@H](C)O [Compound 176, [19CD]-isoGlu-RC()NTATC()ATQRLAEFLHHSSNNF-Gly(Me)-Ile(Me)-LPPTNVGSNTP-NH2] ({C20 diacid-γGlu}-RCNTATCATQRLAEFLHHSSNNF[Sar][NMeI]LPPTNVGSNTP-NH2; disulfide 2-7)	SS (SS indicates solubility ≥ 1mg/ml)	SS (SS indicates solubility ≥ 1mg/ml)	SS (SS indicates solubility ≥ 1mg/ml)	SS (SS indicates solubility ≥ 1mg/ml)	SS (SS indicates solubility ≥ 1mg/ml)	SS (SS indicates solubility ≥ 1mg/ml)	SS (SS indicates solubility ≥ 1mg/ml)	
	CC[C@H](C)[C@H](NC(=O)[C@@H]1CCCN1C(=O)CNC(=O)[C@H](Cc1ccccc1)NC(=O)[C@H](CC(N)=O)NC(=O)[C@H](CC(N)=O)NC(=O)[C@H](CO)NC(=O)[C@H](CO)NC(=O)[C@H](Cc1c[nH]cn1)NC(=O)[C@H](Cc1c[nH]cn1)NC(=O)[C@H](CC(C)C)NC(=O)[C@H](Cc1ccccc1)NC(=O)[C@H](CCC(=O)O)NC(=O)[C@H](C)NC(=O)[C@H](CC(C)C)NC(=O)[C@H](CCCNC(=N)N)NC(=O)[C@H](CCC(N)=O)NC(=O)[C@@H](NC(=O)[C@H](C)NC(=O)[C@@H]1CSSC[C@H](NC(=O)[C@H](CCCNC(=N)N)NC(=O)CC[C@H](NC(=O)CCCCCCCCCCCCCCCCCCC(=O)O)C(=O)O)C(=O)N[C@@H](CC(N)=O)C(=O)N[C@@H]([C@@H](C)O)C(=O)N[C@@H](C)C(=O)N[C@@H]([C@@H](C)O)C(=O)N1)[C@@H](C)O)C(=O)N[C@@H](CC(C)C)C(=O)N1CCC[C@H]1C(=O)N1CCC[C@H]1C(=O)N[C@H](C(=O)N[C@@H](CC(N)=O)C(=O)N[C@H](C(=O)NCC(=O)N[C@@H](CO)C(=O)N[C@@H](CC(N)=O)C(=O)N[C@H](C(=O)N1CCC[C@H]1C(N)=O)[C@@H](C)O)C(C)C)[C@@H](C)O [NN96, N-α-[(S)-4-carboxy-4-(19-carboxynonadecanoylamino)butyryl]-[Arg1,Glu14,His17,Pro37]-pramlintide, reference compound] ({C20 diacid-γGlu}-RCNTATCATQRLAEFLHHSSNNFGPILPPTNVGSNTP-NH2; disulfide 2-7)	SS (SS indicates solubility ≥ 1mg/ml)	SS (SS indicates solubility ≥ 1mg/ml)	SS (SS indicates solubility ≥ 1mg/ml)	SS (SS indicates solubility ≥ 1mg/ml)	SS (SS indicates solubility ≥ 1mg/ml)	SS (SS indicates solubility ≥ 1mg/ml)	SS (SS indicates solubility ≥ 1mg/ml)	0.15 nM
